Values joined by “and” are separate entries in the source; they are usually repeats but may differ in a detail not shown here. Equal values may be shown once.
System: MDA-MB-231 complex spheroid viability
Experiment: Anticancer human tumor MDA-MB-231/ATCC cell line growth inhibition;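 further: drug exposure lasted 7 days starting on day 3 of spheroid growth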
Conditions: for viability, T/C: stronger effect = lower value
How it was run: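 Complex spheroids of tumor cells with HUVEC and human MSCs, exposed to iadademstat combined with other agents. Each agent tested in half-log steps from near clinical Cmax (else 10 microM top), DMSO ≤0.25%.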

[1] = curve of first compound, second compound 0.1 µM
[2] = curve of first compound, second compound 0.316 µM
[3] = curve of first compound, second compound 1 µM
[4] = curve of first compound, second compound 3.16 µM
[5] = curve of first compound, second compound 10 µM
[6] = second compound 0.1 µM, first compound 0.0316 µM
[7] = second compound 0.1 µM, first compound 0.1 µM
[8] = second compound 0.1 µM, first compound 0.316 µM
[9] = second compound 0.1 µM, first compound 1 µM
[10] = second compound 0.316 µM, first compound 0.0316 µM
[11] = second compound 0.316 µM, first compound 0.1 µM
[12] = second compound 0.316 µM, first compound 0.316 µM
[13] = second compound 0.316 µM, first compound 1 µM
[14] = second compound 1 µM, first compound 0.0316 µM
[15] = second compound 1 µM, first compound 0.1 µM
[16] = second compound 1 µM, first compound 0.316 µM
[17] = second compound 1 µM, first compound 1 µM
[18] = second compound 3.16 µM, first compound 0.0316 µM
[19] = second compound 3.16 µM, first compound 0.1 µM
[20] = second compound 3.16 µM, first compound 0.316 µM
[21] = second compound 3.16 µM, first compound 1 µM
[22] = second compound 10 µM, first compound 0.0316 µM
[23] = second compound 10 µM, first compound 0.1 µM
[24] = second compound 10 µM, first compound 0.316 µM
[25] = second compound 10 µM, first compound 1 µM
[26] = second compound 0.1 µM, first compound 3.16 µM
[27] = second compound 0.1 µM, first compound 10 µM
[28] = second compound 0.316 µM, first compound 3.16 µM
[29] = second compound 0.316 µM, first compound 10 µM
[30] = second compound 1 µM, first compound 3.16 µM
[31] = second compound 1 µM, first compound 10 µM
[32] = second compound 3.16 µM, first compound 3.16 µM
[33] = second compound 3.16 µM, first compound 10 µM
[34] = second compound 10 µM, first compound 3.16 µM
[35] = second compound 10 µM, first compound 10 µM

SMILES: Nc1ncn(C2CC(O)C(CO)O2)c(=O)n1 (centres undefined) + NC1CCC(NC2CC2c2ccccc2)CC1
- IC50 [1]: > 1000 nM
- IC50 [2]: > 1000 nM
- IC50 [3]: > 1000 nM
- IC50 [4]: > 1000 nM
- IC50 [5]: 283 nM
- viability, T/C (second compound 0.1 µM, first compound 0.00316 µM): 94%
- viability, T/C (second compound 0.1 µM, first compound 0.01 µM): 94.1%
- viability, T/C [6]: 92.3%
- viability, T/C [7]: 81.3%
- viability, T/C [8]: 71.7%
- viability, T/C [9]: 60.4%
- viability, T/C (second compound 0.316 µM, first compound 0.00316 µM): 98.2%
- viability, T/C (second compound 0.316 µM, first compound 0.01 µM): 96.7%
- viability, T/C [10]: 92.8%
- viability, T/C [11]: 86.3%
- viability, T/C [12]: 66.8%
- viability, T/C [13]: 62.7%
- viability, T/C (second compound 1 µM, first compound 0.00316 µM): 96.9%
- viability, T/C (second compound 1 µM, first compound 0.01 µM): 94.5%
- viability, T/C [14]: 89.2%
- viability, T/C [15]: 71.5%
- viability, T/C [16]: 67.4%
- viability, T/C [17]: 63.9%
- viability, T/C (second compound 3.16 µM, first compound 0.00316 µM): 86%
- viability, T/C (second compound 3.16 µM, first compound 0.01 µM): 84.1%
- viability, T/C [18]: 79.2%
- viability, T/C [19]: 72.8%
- viability, T/C [20]: 59%
- viability, T/C [21]: 54.9%
- viability, T/C (second compound 10 µM, first compound 0.00316 µM): 67%
- viability, T/C (second compound 10 µM, first compound 0.01 µM): 65.5%
- viability, T/C [22]: 63%
- viability, T/C [23]: 55.4%
- viability, T/C [24]: 45.2%
- viability, T/C [25]: 45.1%

SMILES: CC1(C)CCC(CN2CCN(c3ccc(C(=O)NS(=O)(=O)c4ccc(NCC5CCOCC5)c([N+](=O)[O-])c4)c(Oc4cnc5[nH]ccc5c4)c3)CC2)=C(c2ccc(Cl)cc2)C1 + NC1CCC(NC2CC2c2ccccc2)CC1
- IC50 [1]: 6760 nM
- IC50 [2]: 6450 nM
- IC50 [3]: 5380 nM
- IC50 [4]: 3860 nM
- IC50 [5]: 735 nM
- viability, T/C [6]: 100%
- viability, T/C [7]: 98.6%
- viability, T/C [8]: 100%
- viability, T/C [9]: 102%
- viability, T/C [26]: 92.6%
- viability, T/C [27]: 27.8%
- viability, T/C [10]: 102%
- viability, T/C [11]: 103%
- viability, T/C [12]: 97.3%
- viability, T/C [13]: 97.3%
- viability, T/C [28]: 86%
- viability, T/C [29]: 27.6%
- viability, T/C [14]: 98.9%
- viability, T/C [15]: 95.6%
- viability, T/C [16]: 99.4%
- viability, T/C [17]: 95.3%
- viability, T/C [30]: 72.8%
- viability, T/C [31]: 23.5%
- viability, T/C [18]: 81.1%
- viability, T/C [19]: 77.3%
- viability, T/C [20]: 74.8%
- viability, T/C [21]: 75%
- viability, T/C [32]: 56.2%
- viability, T/C [33]: 19.9%
- viability, T/C [22]: 48.6%
- viability, T/C [23]: 60.2%
- viability, T/C [24]: 53.8%
- viability, T/C [25]: 47.7%
- viability, T/C [34]: 36.2%
- viability, T/C [35]: 18.6%

SMILES: NS(=O)(=O)OCC1CC(n2ccc3c(NC4CCc5ccccc54)ncnc32)CC1O (centres undefined) + NC1CCC(NC2CC2c2ccccc2)CC1
- IC50 [1]: 285 nM
- IC50 [2]: 280 nM
- IC50 [3]: 244 nM
- IC50 [4]: 169 nM
- IC50 [5]: 48.6 nM
- viability, T/C (second compound 0.1 µM, first compound 0.00949 µM): 136%
- viability, T/C (second compound 0.1 µM, first compound 0.03 µM): 117%
- viability, T/C (second compound 0.1 µM, first compound 0.0949 µM): 78.1%
- viability, T/C (second compound 0.1 µM, first compound 0.3 µM): 46.6%
- viability, T/C (second compound 0.1 µM, first compound 0.949 µM): 42.7%
- viability, T/C (second compound 0.1 µM, first compound 3 µM): 39.7%
- viability, T/C (second compound 0.316 µM, first compound 0.00949 µM): 135%
- viability, T/C (second compound 0.316 µM, first compound 0.03 µM): 116%
- viability, T/C (second compound 0.316 µM, first compound 0.0949 µM): 77%
- viability, T/C (second compound 0.316 µM, first compound 0.3 µM): 47.6%
- viability, T/C (second compound 0.316 µM, first compound 0.949 µM): 40.3%
- viability, T/C (second compound 0.316 µM, first compound 3 µM): 38.7%
- viability, T/C (second compound 1 µM, first compound 0.00949 µM): 124%
- viability, T/C (second compound 1 µM, first compound 0.03 µM): 107%
- viability, T/C (second compound 1 µM, first compound 0.0949 µM): 73.4%
- viability, T/C (second compound 1 µM, first compound 0.3 µM): 42.2%
- viability, T/C (second compound 1 µM, first compound 0.949 µM): 40.6%
- viability, T/C (second compound 1 µM, first compound 3 µM): 36.8%
- viability, T/C (second compound 3.16 µM, first compound 0.00949 µM): 100%
- viability, T/C (second compound 3.16 µM, first compound 0.03 µM): 87.2%
- viability, T/C (second compound 3.16 µM, first compound 0.0949 µM): 59.7%
- viability, T/C (second compound 3.16 µM, first compound 0.3 µM): 40.2%
- viability, T/C (second compound 3.16 µM, first compound 0.949 µM): 33.4%
- viability, T/C (second compound 3.16 µM, first compound 3 µM): 31.3%
- viability, T/C (second compound 10 µM, first compound 0.00949 µM): 69.7%
- viability, T/C (second compound 10 µM, first compound 0.03 µM): 56.8%
- viability, T/C (second compound 10 µM, first compound 0.0949 µM): 40.4%
- viability, T/C (second compound 10 µM, first compound 0.3 µM): 32.7%
- viability, T/C (second compound 10 µM, first compound 0.949 µM): 28.1%
- viability, T/C (second compound 10 µM, first compound 3 µM): 28.8%

SMILES: O=C(c1cc(Cc2n[nH]c(=O)c3ccccc23)ccc1F)N1CCN(C(=O)C2CC2)CC1 + NC1CCC(NC2CC2c2ccccc2)CC1
- IC50 [1]: > 10000 nM
- IC50 [2]: > 10000 nM
- IC50 [3]: > 10000 nM
- IC50 [4]: 7580 nM
- IC50 [5]: 2460 nM
- viability, T/C [6]: 101%
- viability, T/C [7]: 94.5%
- viability, T/C [8]: 87.5%
- viability, T/C [9]: 79.3%
- viability, T/C [26]: 66.8%
- viability, T/C [27]: 56.2%
- viability, T/C [10]: 98.9%
- viability, T/C [11]: 102%
- viability, T/C [12]: 93.5%
- viability, T/C [13]: 82.1%
- viability, T/C [28]: 66.1%
- viability, T/C [29]: 52.7%
- viability, T/C [14]: 93.1%
- viability, T/C [15]: 94.5%
- viability, T/C [16]: 84.3%
- viability, T/C [17]: 74.5%
- viability, T/C [30]: 67.1%
- viability, T/C [31]: 57.6%
- viability, T/C [18]: 80.8%
- viability, T/C [19]: 77.5%
- viability, T/C [20]: 74.2%
- viability, T/C [21]: 70.2%
- viability, T/C [32]: 56.8%
- viability, T/C [33]: 47.9%
- viability, T/C [22]: 64.4%
- viability, T/C [23]: 61.9%
- viability, T/C [24]: 63%
- viability, T/C [25]: 55.3%
- viability, T/C [34]: 47.4%
- viability, T/C [35]: 37.6%

SMILES: CC(C)CC(NC(=O)CNC(=O)c1cc(Cl)ccc1Cl)B1OC(=O)CC(CC(=O)O)(C(=O)O)O1 (centres undefined)
- viability, T/C (compound 0.000316 µM): 99% and 100%
- viability, T/C (compound 0.001 µM): 104% and 105%
- viability, T/C (compound 0.00316 µM): 85.2% and 70.2%
- viability, T/C (compound 0.01 µM): 39.5% and 14.9%
- viability, T/C (compound 0.0316 µM): 6.41% and 1.24%
- viability, T/C (compound 0.1 µM): 0.95% and 0.27%
- IC50 (curve of compound): 7.67 nM and 4.84 nM

SMILES: CCc1c2c(nc3ccc(O)cc13)-c1cc3c(c(=O)n1C2)COC(=O)[C@]3(O)CC
- viability, T/C (compound 0.000949 µM): 13.4% and 18%
- viability, T/C (compound 0.003 µM): 8.18% and 14.8%
- viability, T/C (compound 0.00949 µM): 7.45% and 15.4%
- viability, T/C (compound 0.03 µM): 9.98% and 5.59%
- viability, T/C (compound 0.0949 µM): 5.58% and 0.92%
- viability, T/C (compound 0.3 µM): 2.32% and 0.78%
- IC50 (curve of compound): < 0.949 nM
